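Briefly, cells in 96-well plates were exposed to five compound concentrations for 48 h, and endpoints were estimated by linear interpolation. Abbreviation: GI50, concentration required for 50% inhibition of growth. The concentration for full growth arrest is given as TGI.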 *1 amine or outer side, *2 acyl side, *3 side chain or, on linkers, in order; H or OH if unused. Where a SMILES comes first, the peptide text is derived from it. Bridges are numbered along the chain shown (N, C = ends). [ ]: non-standard residue; d: D form. The star is where a group is joined. ξ: configuration not given here. Phe(3,5-F2) = N[C@@H](Cc1cc(F)cc(F)c1)C(=O)O; ξThr(3S) = C[C@H](O[*:3])C(N[*:1])C(=O)[*:2]; X25 = C[C@H]1OCCN([*:1])[C@@H]1C(=O)[*:2]; Pro(4R-Me) = C[C@H]1CN[C@H](C(=O)O)C1; X24 = O=S(=O)(F)Oc1ccc(N*)cc1; CO = O=C([*:1])[*:2]
Assays:
Assay in all cases: growth of human tumour cells (NCI), 48 h
786-0 renal = system: 786-0 renal
A498 renal = system: A498 renal
A549 NSCLC = system: A549 NSCLC
ACHN renal = system: ACHN renal
BT-549 breast = system: BT-549 breast
CAKI-1 renal = system: CAKI-1 renal
CCRF-CEM leukemia = system: CCRF-CEM leukemia
COLO 205 colon = system: COLO 205 colon
DU-145 prostate = system: DU-145 prostate
EKVX NSCLC = system: EKVX NSCLC
HCC-2998 colon = system: HCC-2998 colon
HCT-116 colon = system: HCT-116 colon
HCT-15 colon = system: HCT-15 colon
HL-60(TB) leukemia = system: HL-60(TB) leukemia
HOP-62 NSCLC = system: HOP-62 NSCLC
HOP-92 NSCLC = system: HOP-92 NSCLC
HS 578T breast = system: HS 578T breast
HT29 colon = system: HT29 colon
IGROV1 ovarian = system: IGROV1 ovarian
K-562 leukemia = system: K-562 leukemia
KM12 colon = system: KM12 colon
LOX IMVI melanoma = system: LOX IMVI melanoma
M14 melanoma = system: M14 melanoma
MALME-3M melanoma = system: MALME-3M melanoma
MCF7 breast = system: MCF7 breast
MDA-MB-231 breast = system: MDA-MB-231 breast
MDA-MB-435 = system: MDA-MB-435
MOLT-4 leukemia = system: MOLT-4 leukemia
NCI-H226 lung = system: NCI-H226 lung
NCI-H460 lung = system: NCI-H460 lung
NCI-H522 lung = system: NCI-H522 lung
NCI/ADR-RES ovarian = system: NCI/ADR-RES ovarian
OVCAR-3 ovarian = system: OVCAR-3 ovarian
OVCAR-4 ovarian = system: OVCAR-4 ovarian
OVCAR-5 ovarian = system: OVCAR-5 ovarian
OVCAR-8 ovarian = system: OVCAR-8 ovarian
PC-3 prostate = system: PC-3 prostate
RPMI-8226 leukemia = system: RPMI-8226 leukemia
RXF 393 renal = system: RXF 393 renal
SF-268 CNS = system: SF-268 CNS
SF-295 CNS = system: SF-295 CNS
SF-539 CNS = system: SF-539 CNS
SK-MEL-2 melanoma = system: SK-MEL-2 melanoma
SK-MEL-28 melanoma = system: SK-MEL-28 melanoma
SK-MEL-5 melanoma = system: SK-MEL-5 melanoma
SK-OV-3 ovarian = system: SK-OV-3 ovarian
SN12C renal = system: SN12C renal
SNB-19 CNS = system: SNB-19 CNS
SNB-75 CNS = system: SNB-75 CNS
SR leukemia = system: SR leukemia
SW-620 colon = system: SW-620 colon
T-47D breast = system: T-47D breast
TK-10 renal = system: TK-10 renal
U251 CNS = system: U251 CNS
UACC-257 melanoma = system: UACC-257 melanoma
UACC-62 melanoma = system: UACC-62 melanoma
UO-31 renal = system: UO-31 renal

SMILES: C[C@@H]1C[C@H]2C(=O)O[C@@H](C)C(NC(=O)[C@H](Cc3cc(F)cc(F)c3)NC(=O)Nc3ccc(OS(=O)(=O)F)cc3)C(=O)N3CCC[C@H]3C(=O)N3CCO[C@H](C)[C@H]3C(=O)N[C@@H](CO)C(=O)N2C1 (stereo partly drawn) ({X24-CO}-[Phe(3,5-F2)][ξThr(3S)]P[X25]S[Pro(4R-Me)]; ester 2-C)
- GI50 (786-0 renal): 4.54 µM
- TGI (786-0 renal): > 100 µM
- GI50 (A498 renal): 3.05 µM
- TGI (A498 renal): 69.4 µM
- GI50 (A549 NSCLC): 4.63 µM
- TGI (A549 NSCLC): > 100 µM
- GI50 (ACHN renal): 10.1 µM
- TGI (ACHN renal): 35.3 µM
- GI50 (BT-549 breast): 853 nM
- TGI (BT-549 breast): 24.8 µM
- GI50 (CAKI-1 renal): 2790 nM
- TGI (CAKI-1 renal): 34.8 µM
- GI50 (CCRF-CEM leukemia): 591 nM
- TGI (CCRF-CEM leukemia): > 100 µM
- GI50 (COLO 205 colon): 683 nM
- TGI (COLO 205 colon): 3.17 µM
- GI50 (DU-145 prostate): 3.48 µM
- TGI (DU-145 prostate): > 100 µM
- GI50 (EKVX NSCLC): 3.2 µM
- TGI (EKVX NSCLC): > 100 µM
- GI50 (HCC-2998 colon): 1330 nM
- TGI (HCC-2998 colon): 18.7 µM
- GI50 (HCT-116 colon): 452 nM
- TGI (HCT-116 colon): 14.3 µM
- GI50 (HCT-15 colon): 15.3 µM
- TGI (HCT-15 colon): > 100 µM
- GI50 (HL-60(TB) leukemia): 335 nM
- TGI (HL-60(TB) leukemia): 3.18 µM
- GI50 (HOP-62 NSCLC): 2810 nM
- TGI (HOP-62 NSCLC): > 100 µM
- GI50 (HOP-92 NSCLC): 927 nM
- TGI (HOP-92 NSCLC): 7.57 µM
- GI50 (HS 578T breast): 916 nM
- TGI (HS 578T breast): > 100 µM
- GI50 (HT29 colon): 2690 nM
- TGI (HT29 colon): 18.6 µM
- GI50 (IGROV1 ovarian): 2670 nM
- TGI (IGROV1 ovarian): > 100 µM
- GI50 (K-562 leukemia): 482 nM
- TGI (K-562 leukemia): > 100 µM
- GI50 (KM12 colon): 4.39 µM
- TGI (KM12 colon): > 100 µM
- GI50 (LOX IMVI melanoma): 1410 nM
- TGI (LOX IMVI melanoma): > 100 µM
- GI50 (M14 melanoma): 2760 nM
- TGI (M14 melanoma): 22.4 µM
- GI50 (MALME-3M melanoma): 3.23 µM
- TGI (MALME-3M melanoma): 45.2 µM
- GI50 (MCF7 breast): 454 nM
- TGI (MCF7 breast): 64.7 µM
- GI50 (MDA-MB-231 breast): 642 nM
- TGI (MDA-MB-231 breast): 20.4 µM
- GI50 (MDA-MB-435): 589 nM
- TGI (MDA-MB-435): 62 µM
- GI50 (MOLT-4 leukemia): 2120 nM
- TGI (MOLT-4 leukemia): 29.6 µM
- GI50 (NCI-H226 lung): 2300 nM
- TGI (NCI-H226 lung): 9.41 µM
- GI50 (NCI-H460 lung): 2390 nM
- TGI (NCI-H460 lung): > 100 µM
- GI50 (NCI-H522 lung): 497 nM
- TGI (NCI-H522 lung): 9.3 µM
- GI50 (NCI/ADR-RES ovarian): > 100 µM
- TGI (NCI/ADR-RES ovarian): > 100 µM
- GI50 (OVCAR-3 ovarian): 622 nM
- TGI (OVCAR-3 ovarian): 23.7 µM
- GI50 (OVCAR-4 ovarian): 2380 nM
- TGI (OVCAR-4 ovarian): > 100 µM
- GI50 (OVCAR-5 ovarian): 3.58 µM
- TGI (OVCAR-5 ovarian): 26.8 µM
- GI50 (OVCAR-8 ovarian): 2660 nM
- TGI (OVCAR-8 ovarian): > 100 µM
- GI50 (PC-3 prostate): 1010 nM
- TGI (PC-3 prostate): > 100 µM
- GI50 (RPMI-8226 leukemia): 346 nM
- TGI (RPMI-8226 leukemia): 2360 nM
- GI50 (RXF 393 renal): 3.16 µM
- TGI (RXF 393 renal): 37.2 µM
- GI50 (SF-268 CNS): 1330 nM
- TGI (SF-268 CNS): > 100 µM
- GI50 (SF-295 CNS): 3.27 µM
- TGI (SF-295 CNS): 13.1 µM
- GI50 (SF-539 CNS): 2440 nM
- TGI (SF-539 CNS): > 100 µM
- GI50 (SK-MEL-2 melanoma): 419 nM
- TGI (SK-MEL-2 melanoma): 3.59 µM
- GI50 (SK-MEL-28 melanoma): 2300 nM
- TGI (SK-MEL-28 melanoma): > 100 µM
- GI50 (SK-MEL-5 melanoma): 3.09 µM
- TGI (SK-MEL-5 melanoma): 11.6 µM
- GI50 (SK-OV-3 ovarian): 2490 nM
- TGI (SK-OV-3 ovarian): 8.45 µM
- GI50 (SN12C renal): 1360 nM
- TGI (SN12C renal): > 100 µM
- GI50 (SNB-19 CNS): 598 nM
- TGI (SNB-19 CNS): > 100 µM
- GI50 (SNB-75 CNS): 530 nM
- TGI (SNB-75 CNS): 7.46 µM
- GI50 (SR leukemia): 1640 nM
- TGI (SR leukemia): 29.1 µM
- GI50 (SW-620 colon): 1610 nM
- TGI (SW-620 colon): > 100 µM
- GI50 (T-47D breast): 633 nM
- TGI (T-47D breast): > 100 µM
- GI50 (TK-10 renal): 6.22 µM
- TGI (TK-10 renal): > 100 µM
- GI50 (U251 CNS): 769 nM
- TGI (U251 CNS): > 100 µM
- GI50 (UACC-257 melanoma): 1510 nM
- TGI (UACC-257 melanoma): 8.97 µM
- GI50 (UACC-62 melanoma): 1750 nM
- TGI (UACC-62 melanoma): 64.7 µM
- GI50 (UO-31 renal): 23.7 µM
- TGI (UO-31 renal): > 100 µM

Reference: PubChem BioAssay (NCI)
